How the values were obtained:
Assay in all cases: KINOMEscan scanMAX
Type in all cases: binding
Conditions in all cases: read-out: Percent Control
PLK3 = molecular target: T1, PLK3 (Homo sapiens, UniProt Q9H4B4)
T1 construct: purchased Eurofins Discovery (DiscoverX KINOMEscan scanMAX)
Experimental: (§1) The kinome-wide binding assay was performed by Eurofins Discovery using the scanMAX screening platform. More information can be found on the Eurofins Discovery Web site.

[1] = molecular target: T2, JAK2(JH1domain-catalytic) (Homo sapiens, UniProt O60674)
T2 construct: JAK2(JH1domain-catalytic); purchased Eurofins Discovery (DiscoverX KINOMEscan scanMAX)
T2 sequence (O60674 840-1132 limits assumed): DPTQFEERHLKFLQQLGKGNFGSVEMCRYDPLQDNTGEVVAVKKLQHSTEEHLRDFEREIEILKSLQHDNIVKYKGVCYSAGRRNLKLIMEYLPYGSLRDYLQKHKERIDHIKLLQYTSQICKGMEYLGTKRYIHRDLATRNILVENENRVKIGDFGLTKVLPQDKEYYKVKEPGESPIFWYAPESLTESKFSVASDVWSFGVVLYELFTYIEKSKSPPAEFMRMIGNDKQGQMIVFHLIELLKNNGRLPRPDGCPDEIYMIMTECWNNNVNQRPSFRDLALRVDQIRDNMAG
Experimental: as §1

MYO3B = molecular target: T3, MYO3B (Homo sapiens, UniProt Q8WXR4)
T3 construct: purchased Eurofins Discovery (DiscoverX KINOMEscan scanMAX)
Experimental: as §1

PKAC-alpha = molecular target: T4, PKAC-alpha (Homo sapiens, UniProt P17612)
T4 construct: purchased Eurofins Discovery (DiscoverX KINOMEscan scanMAX)
Experimental: as §1

ERN1 = molecular target: T5, ERN1 (Homo sapiens, UniProt O75460)
T5 construct: purchased Eurofins Discovery (DiscoverX KINOMEscan scanMAX)
Experimental: as §1

[2] = molecular target: T6, ABL1(Y253F)-phosphorylated (Homo sapiens, UniProt P00519, Y253F)
T6 construct: purchased Eurofins Discovery (DiscoverX KINOMEscan scanMAX)
Experimental: as §1

MLCK = molecular target: T7, MLCK (Homo sapiens, UniProt Q32MK0)
T7 construct: purchased Eurofins Discovery (DiscoverX KINOMEscan scanMAX)
Experimental: as §1

CAMK1 = molecular target: T8, CAMK1 (Homo sapiens, UniProt Q14012)
T8 construct: purchased Eurofins Discovery (DiscoverX KINOMEscan scanMAX)
Experimental: as §1

[3] = molecular target: T9, JAK1(JH2domain-pseudokinase) (Homo sapiens, UniProt P23458)
T9 construct: JAK1(JH2domain-pseudokinase); purchased Eurofins Discovery (DiscoverX KINOMEscan scanMAX)
T9 sequence (P23458 561-860 limits assumed): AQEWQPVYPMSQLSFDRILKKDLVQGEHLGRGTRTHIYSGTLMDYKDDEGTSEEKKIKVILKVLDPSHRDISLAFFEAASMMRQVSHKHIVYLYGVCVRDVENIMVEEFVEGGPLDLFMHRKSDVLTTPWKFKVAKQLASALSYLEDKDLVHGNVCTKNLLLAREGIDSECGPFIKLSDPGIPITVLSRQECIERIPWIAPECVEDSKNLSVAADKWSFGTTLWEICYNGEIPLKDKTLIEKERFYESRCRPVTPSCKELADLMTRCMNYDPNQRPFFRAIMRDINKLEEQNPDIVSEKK
Experimental: as §1

MEK4 = molecular target: T10, MEK4 (Homo sapiens, UniProt P45985)
T10 construct: purchased Eurofins Discovery (DiscoverX KINOMEscan scanMAX)
T10 sequence (P45985 whole entry): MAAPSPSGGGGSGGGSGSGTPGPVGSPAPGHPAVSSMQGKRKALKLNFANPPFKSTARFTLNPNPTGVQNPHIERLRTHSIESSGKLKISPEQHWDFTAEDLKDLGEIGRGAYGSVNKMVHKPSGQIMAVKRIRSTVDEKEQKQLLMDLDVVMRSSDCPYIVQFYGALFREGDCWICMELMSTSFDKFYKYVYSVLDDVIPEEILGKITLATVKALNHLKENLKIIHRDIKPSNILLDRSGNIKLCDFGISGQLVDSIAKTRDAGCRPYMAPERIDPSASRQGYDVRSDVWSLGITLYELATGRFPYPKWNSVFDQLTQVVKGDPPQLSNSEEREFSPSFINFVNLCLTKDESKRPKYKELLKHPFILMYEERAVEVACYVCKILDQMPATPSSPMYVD
Experimental: as §1

[4] = molecular target: T11, RSK3(Kin.Dom.2-C-terminal) (Homo sapiens, UniProt Q15349)
T11 construct: RSK3(Kin.Dom.2-C-terminal); purchased Eurofins Discovery (DiscoverX KINOMEscan scanMAX)
Experimental: as §1

[5] = molecular target: T12, ABL1(F317L)-nonphosphorylated (Homo sapiens, UniProt P00519, F317L)
T12 construct: purchased Eurofins Discovery (DiscoverX KINOMEscan scanMAX)
Experimental: as §1

HPK1 = molecular target: T13, HPK1 (Homo sapiens, UniProt Q92918)
T13 construct: purchased Eurofins Discovery (DiscoverX KINOMEscan scanMAX)
T13 sequence (Q92918 whole entry): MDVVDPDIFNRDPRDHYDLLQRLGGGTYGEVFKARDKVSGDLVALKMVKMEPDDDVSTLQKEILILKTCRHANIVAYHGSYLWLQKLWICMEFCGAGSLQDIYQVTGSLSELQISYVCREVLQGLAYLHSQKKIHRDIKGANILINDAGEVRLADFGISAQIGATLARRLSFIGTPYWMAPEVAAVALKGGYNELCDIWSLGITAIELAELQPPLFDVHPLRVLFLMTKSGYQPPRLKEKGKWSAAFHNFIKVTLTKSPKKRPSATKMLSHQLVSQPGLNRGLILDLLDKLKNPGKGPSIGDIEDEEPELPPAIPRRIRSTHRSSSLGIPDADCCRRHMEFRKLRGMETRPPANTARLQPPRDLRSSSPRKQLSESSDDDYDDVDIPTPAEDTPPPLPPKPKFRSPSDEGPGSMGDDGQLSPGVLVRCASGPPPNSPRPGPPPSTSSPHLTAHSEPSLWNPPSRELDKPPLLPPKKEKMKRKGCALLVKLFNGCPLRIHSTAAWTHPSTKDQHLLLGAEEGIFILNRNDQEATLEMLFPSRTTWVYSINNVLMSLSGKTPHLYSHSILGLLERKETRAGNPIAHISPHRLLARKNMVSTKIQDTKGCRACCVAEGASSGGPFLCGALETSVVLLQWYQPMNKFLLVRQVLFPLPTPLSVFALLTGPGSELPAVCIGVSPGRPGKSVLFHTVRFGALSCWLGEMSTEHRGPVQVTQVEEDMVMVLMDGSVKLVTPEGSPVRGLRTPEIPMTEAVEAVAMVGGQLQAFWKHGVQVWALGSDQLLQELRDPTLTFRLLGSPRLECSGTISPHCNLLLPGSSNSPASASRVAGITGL
Experimental: as §1

DAPK1 = molecular target: T14, DAPK1 (Homo sapiens, UniProt P53355)
T14 construct: purchased Eurofins Discovery (DiscoverX KINOMEscan scanMAX)
Experimental: as §1

[6] = molecular target: T15, EGFR(L747-S752del, P753S) (Homo sapiens, UniProt P00533, DEL747-752/P753S)
T15 construct: purchased Eurofins Discovery (DiscoverX KINOMEscan scanMAX)
Experimental: as §1

ITK = molecular target: T16, ITK (Homo sapiens, UniProt Q08881)
T16 construct: purchased Eurofins Discovery (DiscoverX KINOMEscan scanMAX)
T16 sequence (Q08881 whole entry): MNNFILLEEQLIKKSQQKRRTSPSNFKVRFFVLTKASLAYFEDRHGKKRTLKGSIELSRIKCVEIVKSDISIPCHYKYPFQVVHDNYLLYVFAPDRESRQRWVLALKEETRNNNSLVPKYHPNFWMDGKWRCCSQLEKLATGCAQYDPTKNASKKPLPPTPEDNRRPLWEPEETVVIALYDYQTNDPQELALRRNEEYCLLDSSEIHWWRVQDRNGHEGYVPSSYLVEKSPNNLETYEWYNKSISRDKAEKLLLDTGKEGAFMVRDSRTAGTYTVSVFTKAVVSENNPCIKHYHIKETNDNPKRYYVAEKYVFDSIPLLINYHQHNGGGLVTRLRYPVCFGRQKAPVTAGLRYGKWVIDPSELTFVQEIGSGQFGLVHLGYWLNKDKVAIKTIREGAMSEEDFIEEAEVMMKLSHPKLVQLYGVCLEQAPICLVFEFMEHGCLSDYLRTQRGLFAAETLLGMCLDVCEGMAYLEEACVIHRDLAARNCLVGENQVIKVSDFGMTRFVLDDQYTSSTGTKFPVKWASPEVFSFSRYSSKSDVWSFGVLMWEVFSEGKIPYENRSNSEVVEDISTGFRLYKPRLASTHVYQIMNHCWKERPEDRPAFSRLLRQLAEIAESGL
Experimental: as §1

MARK3 = molecular target: T17, MARK3 (Homo sapiens, UniProt P27448)
T17 construct: purchased Eurofins Discovery (DiscoverX KINOMEscan scanMAX)
Experimental: as §1

PFPK5(P.falciparum) = molecular target: T18, PFPK5(P.falciparum) (Plasmodium falciparum, UniProt P61075)
T18 construct: purchased Eurofins Discovery (DiscoverX KINOMEscan scanMAX)
T18 sequence (P61075 whole entry): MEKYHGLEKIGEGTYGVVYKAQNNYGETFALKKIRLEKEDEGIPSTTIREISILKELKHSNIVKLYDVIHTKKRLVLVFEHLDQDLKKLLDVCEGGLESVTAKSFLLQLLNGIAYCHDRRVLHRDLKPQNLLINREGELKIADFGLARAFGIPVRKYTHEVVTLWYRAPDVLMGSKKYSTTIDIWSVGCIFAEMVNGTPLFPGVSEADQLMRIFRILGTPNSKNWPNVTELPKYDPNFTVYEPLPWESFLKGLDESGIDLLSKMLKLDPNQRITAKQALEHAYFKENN
Experimental: as §1

WEE2 = molecular target: T19, WEE2 (Homo sapiens, UniProt P0C1S8)
T19 construct: purchased Eurofins Discovery (DiscoverX KINOMEscan scanMAX)
Experimental: as §1

CDKL2 = molecular target: T20, CDKL2 (Homo sapiens, UniProt Q92772)
T20 construct: purchased Eurofins Discovery (DiscoverX KINOMEscan scanMAX)
T20 sequence (Q92772 whole entry): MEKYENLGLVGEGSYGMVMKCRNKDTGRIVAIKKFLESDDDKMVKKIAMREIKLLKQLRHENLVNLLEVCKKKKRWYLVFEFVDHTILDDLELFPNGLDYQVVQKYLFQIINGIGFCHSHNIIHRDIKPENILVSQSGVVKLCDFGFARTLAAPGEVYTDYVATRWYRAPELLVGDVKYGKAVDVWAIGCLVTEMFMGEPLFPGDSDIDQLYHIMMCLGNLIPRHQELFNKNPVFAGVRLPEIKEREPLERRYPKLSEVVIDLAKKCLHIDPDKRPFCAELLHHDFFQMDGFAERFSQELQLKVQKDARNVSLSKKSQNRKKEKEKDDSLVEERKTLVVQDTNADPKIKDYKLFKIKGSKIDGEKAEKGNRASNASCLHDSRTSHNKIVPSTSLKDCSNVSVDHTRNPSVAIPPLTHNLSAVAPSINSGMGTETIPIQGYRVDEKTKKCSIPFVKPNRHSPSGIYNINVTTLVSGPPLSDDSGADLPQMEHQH
Experimental: as §1

MST1R = molecular target: T21, MST1R (Homo sapiens, UniProt Q04912)
T21 construct: purchased Eurofins Discovery (DiscoverX KINOMEscan scanMAX)
Experimental: as §1

[7] = molecular target: T22, RPS6KA5(Kin.Dom.2-C-terminal) (Homo sapiens, UniProt O75582)
T22 construct: RPS6KA5(Kin.Dom.2-C-terminal); purchased Eurofins Discovery (DiscoverX KINOMEscan scanMAX)
Experimental: as §1

ALK(C1156Y) = molecular target: T23, ALK(C1156Y) (Homo sapiens, UniProt Q9UM73, C1156Y)
T23 construct: purchased Eurofins Discovery (DiscoverX KINOMEscan scanMAX)
Experimental: as §1

MAP4K2 = molecular target: T24, MAP4K2 (Homo sapiens, UniProt Q12851)
T24 construct: purchased Eurofins Discovery (DiscoverX KINOMEscan scanMAX)
T24 sequence (Q12851 whole entry): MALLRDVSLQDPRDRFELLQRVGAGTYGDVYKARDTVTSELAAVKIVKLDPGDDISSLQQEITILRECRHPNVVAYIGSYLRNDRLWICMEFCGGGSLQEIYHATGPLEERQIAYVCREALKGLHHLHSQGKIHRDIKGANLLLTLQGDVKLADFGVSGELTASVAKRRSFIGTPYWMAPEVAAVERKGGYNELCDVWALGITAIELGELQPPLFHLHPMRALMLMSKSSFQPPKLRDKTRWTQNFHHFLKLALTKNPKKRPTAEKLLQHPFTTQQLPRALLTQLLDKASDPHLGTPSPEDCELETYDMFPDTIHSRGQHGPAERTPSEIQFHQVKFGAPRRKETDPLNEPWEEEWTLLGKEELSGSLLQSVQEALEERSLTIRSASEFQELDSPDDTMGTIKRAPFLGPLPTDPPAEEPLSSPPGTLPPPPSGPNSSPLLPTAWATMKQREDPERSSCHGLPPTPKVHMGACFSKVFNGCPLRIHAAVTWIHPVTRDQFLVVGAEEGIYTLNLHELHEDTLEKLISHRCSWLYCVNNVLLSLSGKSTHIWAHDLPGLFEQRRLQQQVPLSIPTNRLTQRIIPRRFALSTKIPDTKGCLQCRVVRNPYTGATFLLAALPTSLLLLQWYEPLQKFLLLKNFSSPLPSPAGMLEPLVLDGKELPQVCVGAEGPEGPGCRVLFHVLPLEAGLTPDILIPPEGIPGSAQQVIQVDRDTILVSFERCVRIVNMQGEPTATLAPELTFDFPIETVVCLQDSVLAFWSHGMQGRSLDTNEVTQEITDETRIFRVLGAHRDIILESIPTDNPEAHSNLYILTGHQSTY
Experimental: as §1

PCTK2 = molecular target: T25, PCTK2 (Homo sapiens, UniProt Q00537)
T25 construct: purchased Eurofins Discovery (DiscoverX KINOMEscan scanMAX)
Experimental: as §1

EPHA2 = molecular target: T26, EPHA2 (Homo sapiens, UniProt P29317)
T26 construct: purchased Eurofins Discovery (DiscoverX KINOMEscan scanMAX)
Experimental: as §1

FLT3 = molecular target: T27, FLT3 (Homo sapiens, UniProt P36888)
T27 construct: purchased Eurofins Discovery (DiscoverX KINOMEscan scanMAX)
Experimental: as §1

KIT(V559D) = molecular target: T28, KIT(V559D) (Homo sapiens, UniProt P10721, V559D)
T28 construct: purchased Eurofins Discovery (DiscoverX KINOMEscan scanMAX)
T28 sequence (P10721 26-976 V559D): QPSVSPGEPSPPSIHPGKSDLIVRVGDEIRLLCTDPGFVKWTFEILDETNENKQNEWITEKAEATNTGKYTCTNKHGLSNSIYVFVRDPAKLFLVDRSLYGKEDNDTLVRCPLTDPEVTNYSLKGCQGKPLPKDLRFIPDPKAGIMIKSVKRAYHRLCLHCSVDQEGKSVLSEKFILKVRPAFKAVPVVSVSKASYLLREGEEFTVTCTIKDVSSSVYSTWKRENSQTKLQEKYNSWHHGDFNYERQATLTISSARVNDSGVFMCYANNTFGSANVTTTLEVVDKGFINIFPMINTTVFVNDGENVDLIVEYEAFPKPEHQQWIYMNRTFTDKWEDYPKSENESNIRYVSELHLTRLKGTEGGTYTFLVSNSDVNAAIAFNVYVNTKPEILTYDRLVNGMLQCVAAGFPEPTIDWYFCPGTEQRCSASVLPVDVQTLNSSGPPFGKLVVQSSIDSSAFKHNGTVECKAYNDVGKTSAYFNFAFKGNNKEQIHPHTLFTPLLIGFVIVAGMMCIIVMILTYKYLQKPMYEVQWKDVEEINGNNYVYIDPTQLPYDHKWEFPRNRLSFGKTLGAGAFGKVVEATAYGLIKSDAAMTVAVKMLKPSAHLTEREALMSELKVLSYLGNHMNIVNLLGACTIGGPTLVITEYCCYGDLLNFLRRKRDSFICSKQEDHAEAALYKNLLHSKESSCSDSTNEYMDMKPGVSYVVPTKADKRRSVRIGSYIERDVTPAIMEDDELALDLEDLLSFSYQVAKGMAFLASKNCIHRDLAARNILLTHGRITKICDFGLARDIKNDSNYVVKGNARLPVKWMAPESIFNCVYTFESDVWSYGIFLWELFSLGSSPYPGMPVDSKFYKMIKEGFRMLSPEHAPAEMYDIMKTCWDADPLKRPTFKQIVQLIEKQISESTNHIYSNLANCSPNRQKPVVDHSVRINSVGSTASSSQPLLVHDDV
Experimental: as §1

LOK = molecular target: T29, LOK (Homo sapiens, UniProt O94804)
T29 construct: purchased Eurofins Discovery (DiscoverX KINOMEscan scanMAX)
Experimental: as §1

HIPK4 = molecular target: T30, HIPK4 (Homo sapiens, UniProt Q8NE63)
T30 construct: purchased Eurofins Discovery (DiscoverX KINOMEscan scanMAX)
Experimental: as §1

NEK2 = molecular target: T31, NEK2 (Homo sapiens, UniProt P51955)
T31 construct: purchased Eurofins Discovery (DiscoverX KINOMEscan scanMAX)
Experimental: as §1

## Cc1cc(Nc2ccc(F)c(CC3(C(=O)N4CCC(F)(CN5CCN(c6ccc(N7CCC(=O)NC7=O)cn6)CC5)CC4)CCN(Cc4cccc(Cl)c4F)CC3)n2)n[nH]1 [SK5527]
PLK3; 100 nM
  remaining binding at 0.1 µM: 100%
PLK3; 1000 nM
  remaining binding at 1 µM: 86%
[1]; 100 nM
  remaining binding at 0.1 µM: 91%
[1]; 1000 nM
  remaining binding at 1 µM: 65%
MYO3B; 100 nM
  remaining binding at 0.1 µM: 100%
MYO3B; 1000 nM
  remaining binding at 1 µM: 100%
PKAC-alpha; 100 nM
  remaining binding at 0.1 µM: 83%
PKAC-alpha; 1000 nM
  remaining binding at 1 µM: 86%
ERN1; 100 nM
  remaining binding at 0.1 µM: 100%
ERN1; 1000 nM
  remaining binding at 1 µM: 100%
[2]; 100 nM
  remaining binding at 0.1 µM: 63%
[2]; 1000 nM
  remaining binding at 1 µM: 36%
MLCK; 100 nM
  remaining binding at 0.1 µM: 100%
MLCK; 1000 nM
  remaining binding at 1 µM: 0%
CAMK1; 100 nM
  remaining binding at 0.1 µM: 100%
CAMK1; 1000 nM
  remaining binding at 1 µM: 98%
[3]; 100 nM
  remaining binding at 0.1 µM: 94%
[3]; 1000 nM
  remaining binding at 1 µM: 86%
MEK4; 100 nM
  remaining binding at 0.1 µM: 94%
MEK4; 1000 nM
  remaining binding at 1 µM: 73%
[4]; 100 nM
  remaining binding at 0.1 µM: 88%
[4]; 1000 nM
  remaining binding at 1 µM: 92%
[5]; 100 nM
  remaining binding at 0.1 µM: 97%
[5]; 1000 nM
  remaining binding at 1 µM: 49%
HPK1; 100 nM
  remaining binding at 0.1 µM: 100%
HPK1; 1000 nM
  remaining binding at 1 µM: 100%
DAPK1; 100 nM
  remaining binding at 0.1 µM: 85%
DAPK1; 1000 nM
  remaining binding at 1 µM: 81%
[6]; 100 nM
  remaining binding at 0.1 µM: 81%
[6]; 1000 nM
  remaining binding at 1 µM: 65%
ITK; 100 nM
  remaining binding at 0.1 µM: 100%
ITK; 1000 nM
  remaining binding at 1 µM: 81%
MARK3; 100 nM
  remaining binding at 0.1 µM: 100%
MARK3; 1000 nM
  remaining binding at 1 µM: 87%
PFPK5(P.falciparum); 100 nM
  remaining binding at 0.1 µM: 89%
PFPK5(P.falciparum); 1000 nM
  remaining binding at 1 µM: 80%
WEE2; 100 nM
  remaining binding at 0.1 µM: 79%
WEE2; 1000 nM
  remaining binding at 1 µM: 88%
CDKL2; 100 nM
  remaining binding at 0.1 µM: 90%
CDKL2; 1000 nM
  remaining binding at 1 µM: 100%
MST1R; 100 nM
  remaining binding at 0.1 µM: 100%
MST1R; 1000 nM
  remaining binding at 1 µM: 100%
[7]; 100 nM
  remaining binding at 0.1 µM: 100%
[7]; 1000 nM
  remaining binding at 1 µM: 96%
ALK(C1156Y); 100 nM
  remaining binding at 0.1 µM: 87%
ALK(C1156Y); 1000 nM
  remaining binding at 1 µM: 100%
MAP4K2; 100 nM
  remaining binding at 0.1 µM: 88%
MAP4K2; 1000 nM
  remaining binding at 1 µM: 95%
PCTK2; 100 nM
  remaining binding at 0.1 µM: 100%
PCTK2; 1000 nM
  remaining binding at 1 µM: 100%
EPHA2; 100 nM
  remaining binding at 0.1 µM: 100%
EPHA2; 1000 nM
  remaining binding at 1 µM: 100%
FLT3; 100 nM
  remaining binding at 0.1 µM: 90%
FLT3; 1000 nM
  remaining binding at 1 µM: 77%
KIT(V559D); 100 nM
  remaining binding at 0.1 µM: 100%
KIT(V559D); 1000 nM
  remaining binding at 1 µM: 100%
LOK; 100 nM
  remaining binding at 0.1 µM: 100%
LOK; 1000 nM
  remaining binding at 1 µM: 100%
HIPK4; 100 nM
  remaining binding at 0.1 µM: 85%
HIPK4; 1000 nM
  remaining binding at 1 µM: 81%
NEK2; 100 nM
  remaining binding at 0.1 µM: 90%
NEK2; 1000 nM
  remaining binding at 1 µM: 91%

— publication PMC12670405, “Second-Generation AURKA-Targeting PROTACs: Structural Optimization toward in Vivo Degradation in Neuroblastoma” (Journal of Medicinal Chemistry, 2025)
